Source: patent US9250249B2, “Autophagy and phospholipidosis pathway assays” (Enzo Biochem, Inc., priority 2008, dated 2016)
Like-named read-outs stand apart in the source and are kept apart here.

What was measured:
U2OS cells [1] = conditions: for Relative Hoechst Stain (intensity of Hoechst 33342 fluorescence of treated cells compared to the untreated control; number of cells remaining): human, 18 h
Protocol: (§2) Fluorescence intensity of the cells cultured on the 96-well plates was measured using a FLUOstar OPTIMA Multifunction Microplate Reader (BMG LabTech, Offenburg, Germany). […] Fluorescence intensity was expressed as percentage of the vehicle control value.
(§3) In the preliminary screen, test agents were employed at a single dose in an effort to identify any potential lysosome-modifying agents.

U2OS cells [2] = test: Fluorescence microplate-based lysosomal perturbation assay (Dye 1 fluorescence), incl. ICCB library screen; conditions: for Relative Lyso Stain (intensity of Dye 1 fluorescence of treated cells compared to the untreated control): 18 hours, single concentration per compound; for vacuolation / expansion of lysosomal compartment detected by Dye 1 assay: Dye 1 stained post drug incubation; for hit call in ICCB library screen (Dye 1 accumulation): ICCB known bioactives library screen
Protocol: In order to increase throughput and reduce handling time, the fluorescence microscopy-based lysosomal perturbation assay was scaled up to a 96-well microplate plate assay format and analyzed using a fluorescence microplate reader.
as §2, §3

U2OS cells [3] = test: Cell number per well by Hoechst 33342 fluorescence (generalized compound toxicity); conditions: for Relative Hoechst Stain (intensity of Hoechst 33342 fluorescence of treated cells compared to the untreated control; number of cells remaining): 18 hours, single concentration per compound; for generalized cellular toxicity (loss of cells / decrease in Hoechst 33342 signal): greater than 30% decrease in cell number flagged as toxic
Protocol: as §2, §3

cultured cells = conditions: high micromolar concentrations; cited from earlier work
[4] = test system: U2OS human osteosarcoma cells; test: Fluorescence microscopy-based lysosomal perturbation assay (Dye 1 staining); assay type: cell-based; conditions: U2OS cells pre-treated with drug (chloroquine 8-64 μM, 18 hours), Dye 1 15 min
Protocol: (§1) U2OS human osteosarcoma cells were maintained in McCoy's 5a modified medium supplemented with 10% FBS and 100 units/ml penicillin/streptomycin (Invitrogen, Carlsbad, Calif.) in a humidified 37° C., 5% CO2 environment. Cells were allowed to proliferate on glass slides or were seeded into 96-well plates at a density of 2×10^4 cells/well and allowed to attach overnight. The cells were plated such that at the end of the experiment, they reached about 90% confluency.
The fluorescence-based lysosomal perturbation assay was established by first incubating cells cultivated on glass slides for 4-24 hours with chloroquine (8-64 μM final concentration), a well known phospholipidosis-inducing agent. Control cells were incubated with 0.1% (v/v) dimethyl sulfoxide (DMSO), which served as the vehicle control. Cells were then briefly (15 min) incubated with a combination of Dye 1 and Hoechst 33342 dye. Following incubation, cells grown on glass microscope slides were covered with glass coverslips, sealed with nail polish and observed using an inverted Axiovert 200M microscope (Carl Zeiss, Inc., Oberkochen, Germany). Images were acquired with a 63× objective lens (Zeiss).
Cells were subsequently stained with Dye 1 for 15 minutes. Nuclei were counter-stained with Hoechst 33342 dye. In FIG. 1, control U2OS cells are shown in (A), cells pre-treated for 18 hours with 8 μM chloroquine in (B), cells pre-treated for 18 hours with 16 μM chloroquine in (C) and cells pre-treated for 18 hours with 64 μM chloroquine in (D). This staining pattern was also consistently observed for other drugs that are known to induce phospholipidosis, such as chlorpromazine, fluoxetine, pimozide and verapamil (further described in Example 4). […] The ability of Dye 1 to detect vacuole accumulation in the described in vitro cell culture model mimicking Fabry disease strongly supports the present invention and its suitability for the detection of genetically derived lysosomal storage diseases.

U2OS cells [5] = test: Multiplexed CF-PE / Dye 1 / Hoechst 33342 microplate assay distinguishing phospholipidosis from autophagy pathway inhibition; assay type: cell-based, human; conditions: 24 h with CF-PE medium and test compound; for green signal (CF-PE) relative to vehicle-treated controls: ex 492 nm, em 517 nm; for red signal (Dye 1) relative to vehicle-treated controls: then Dye 1 15 min
Protocol: For example, CF-PE was suspended in ethanol and diluted in the cell culture medium (McCoy's 5a modified medium, as described in Example 3) to give a solution (CF-PE medium) with final concentration of 50 μM (0.46% ethanol). […] medium was then sonicated and filtered through a […] filter. The prepared was then applied to U2OS cells growing in a 96-well microplate. After an equilibration period of 24 h, the cell culture medium was replaced with CF-PE medium with or without each test compound, and the cells were incubated at 37° C. for an additional 24 h. After incubation, the cells were rinsed with medium and further incubated with the same medium containing Dye 1 and Hoechst 33342 dye for an additional 15 min at 37° C. in 5% CO2 atmosphere.
Fluorescence signal was determined using a standard microplate reader, as described in example 4, except that CF-PE was additionally read at an excitation wavelength of 492 nm and an emission wavelength of 517 nm. […] Generalized cytotoxicity is evident as a substantial decrease in blue signal (≧30%) relative to vehicle-treated control cells.

U2OS cells [6] = test: Lipid-Tox fluorescent phospholipid analog-based phospholipidosis assay; assay type: cell-based, human; conditions: 24 hours co-incubation with Lipid-Tox dye and drug
Protocol: Many assays of phospholipidosis, including the Lipid-Tox assay (Invitrogen, Carlsbad, Calif.), are based upon co-incubating cells with a fluorescent phospholipid analog for an extended period of time, along with the drug or test agent being evaluated, and then monitoring signal generation in fixed and permeabilized cells. Dye 1 is not a fluorescent phospholipid analog, but instead is a cationic amphiphilic fluorophore tracer. Cells are incubated with the drug or test agent in isolation and then briefly treated with the tracer dye before evaluation in live cells. […] Choloroquine, a prototypical phospholipidosis-inducing agent, and bafilomycin A, an agent well known to induce the accumulation of autophagosomes, were evaluated using both Dye 1 and Lipid-Tox dye-based assays (FIG. 3). […] Cells stained with Lipid-Tox dye (solid triangles dash-dot line) were incubated in the presence of the fluorescent lipid for 24 hours during treatment with the drugs.

[7] = test system: U-2-OS human osteosarcoma cells; test: In vitro model of sphingolipidosis (Niemann-Pick mimic), microplate readout at 680 nm and 480 nm; assay type: cell-based
Source text: Stable cell lines derived from patients with Niemann-Pick disease can not be found in cell line repositories, such as American Type […] Collection (Manassas, Va.), and are not readily available to the research community. Consequently, an in vitro tissue culture model of sphingolipidosis was devised using 2R,3S,4E)-N-methyl-5-(4′pentylphenyl)-2-aminopent-4-ene-1,3-diol, designated SK1-I (BML-258), a potent, water soluble, isozyme-specific inhibitor of sphingosine kinase-1. […] U-2-OS human osteosarcoma cells were seeded at 22,500 cells/well, grown overnight, and then treated with a final concentration of 0, 2.5, 5, 10 or 20 μM of SK1-I for 18.5 hours. Next, the cells were briefly treated with compound 1 and the nuclear Hoechst 33342 dye, as described in Example 7. Fluorescence signal was read on a BioTek Synergy Mx microplate reader at excitation values of 340 and 540 nm and emission values of 480 and 680 nm. […] Fluorescence microscope-based examination of the wells confirmed that compound 1 staining of the cells was confined to the vacuolar structures. This in vitro model confirms the feasibility of using the assay for detecting aberrant accumulation of sphingolipids in cells, and by extension the feasibility of using the assay in monitoring inherited lysosomal storage diseases, such as Niemann-Pick disease.

HeLa cells = test: Fluorescence microscopy lysosomal perturbation assay with Dye 6; assay type: cell-based; conditions: chloroquine 120 μM for 6 hours, Dye 6 15 min
Protocol: as §1, with “HeLa” for “U2OS human osteosarcoma”, “Dulbecco's” for “McCoy's 5a”, “modified Eagles” for “modified”, “FBS,” for “FBS and”, “Calif.) and MEM non essential amino acids” for “Calif.)”, “slides” for “slides or were seeded into 96-well plates”
The fluorescence-based lysosomal perturbation assay was established by first incubating cells cultivated on glass slides for 6 hours with chloroquine (120 μM final concentration), a well known phospholipidosis-inducing agent. Control cells were incubated with 0.1% (v/v) dimethyl sulfoxide (DMSO), which served as the vehicle control. Cells were then briefly (15 min) incubated with Dye 6 at room temperature. Following incubation, cells grown on glass microscope slides were covered with glass coverslips, sealed with nail polish and observed using an Olympus BX51 microscope. Images were acquired with a 40× objective lens. […] The untreated cells gave a low level of fluorescent staining.

[8] = pH dependence of Dye 1 fluorescence; assay type: physicochemical; conditions: pH range of 4.0 to 9.0
[9] = Homo sapiens, 18 h, read-out: EC50 (Dye 1-based assay)

O=c1[nH]c2ccccc2n1C1CCN(CCCC(c2ccc(F)cc2)c2ccc(F)cc2)CC1 [pimozide]
generalized cellular toxicity (loss of cells / decrease in Hoechst 33342 signal) (U2OS cells [1]): toxic doses

CC(C)(C)c1cc(C=C(C#N)C#N)cc(C(C)(C)C)c1O [Tyrphostin 9]
Relative Lyso Stain (intensity of Dye 1 fluorescence of treated cells compared to the untreated control) (U2OS cells [2]): 200% | Relative Hoechst Stain (intensity of Hoechst 33342 fluorescence of treated cells compared to the untreated control; number of cells remaining) (U2OS cells [3]): 31%

CC(C)NCC(O)COc1cccc2ccccc12 (stereo not drawn) [Propranolol (S-), Propranolol]
time to half maximum uptake (cultured cells): 4 to 10 min | time to steady state of cellular uptake (cultured cells): 40 to 60 min

CNCCC(Oc1ccc(C(F)(F)F)cc1)c1ccccc1 (stereo not drawn) [fluoxetine]
generalized cellular toxicity (loss of cells / decrease in Hoechst 33342 signal) (U2OS cells [1]): toxic doses | punctate pattern of cytoplasmic staining / levels of Dye 1 in the cells [4]: increased in a dose-dependent manner

CO/C1=C\C(C)=C\[C@@H](C)[C@@H](O)[C@@H](C)C/C(C)=C/C=C/[C@H](OC)[C@@H]([C@@H](C)[C@@H](O)[C@H](C)[C@@]2(O)C[C@@H](O)[C@H](C)[C@@H](C(C)C)O2)OC1=O [Bafilomycin A1]
green signal (CF-PE) relative to vehicle-treated controls (U2OS cells [5]): low green signal | red signal (Dye 1) relative to vehicle-treated controls (U2OS cells [5]): increased red signal | Relative Lyso Stain (intensity of Dye 1 fluorescence of treated cells compared to the untreated control) (U2OS cells [2]): 176% | vacuolation / expansion of lysosomal compartment detected by Dye 1 assay (U2OS cells [2]): increase vacuole number and volume | vacuolation / expansion of lysosomal compartment detected by Dye 1 assay (U2OS cells [2]; listed as bafilomycin A): increased vacuolation | EC50 (U2OS cells [2]; read-out: calculated EC50 value in Dye 1 based assay, 24 hours treatment, Dye 1 15 minutes post drug): 0.003 µM | Relative Hoechst Stain (intensity of Hoechst 33342 fluorescence of treated cells compared to the untreated control; number of cells remaining) (U2OS cells [3]): 58% | generalized cellular toxicity (loss of cells / decrease in Hoechst 33342 signal) (U2OS cells [3]): cytotoxic | vacuolation / expansion of lysosomal compartment detected by Lipid-Tox assay (U2OS cells [6]): only Dye 1 identified the increased vacuolation

NC(=O)c1ccc(-c2nc(-c3ccc4c(c3)OCO4)c(-c3ccccn3)[nH]2)cc1 [SB-431542]
Relative Hoechst Stain (intensity of Hoechst 33342 fluorescence of treated cells compared to the untreated control; number of cells remaining) (U2OS cells [1]): 101% | Relative Lyso Stain (intensity of Dye 1 fluorescence of treated cells compared to the untreated control) (U2OS cells [2]): 154% | hit call in ICCB library screen (Dye 1 accumulation) (U2OS cells [2]): positive hits

CC(=O)c1c(O)c(C)c(O)c(Cc2c(O)c3c(c(C(=O)/C=C/c4ccccc4)c2O)OC(C)(C)C=C3)c1O [Rottlerin]
Relative Lyso Stain (intensity of Dye 1 fluorescence of treated cells compared to the untreated control) (U2OS cells [2]): 187% | hit call in ICCB library screen (Dye 1 accumulation) (U2OS cells [2]): false positive hit | Relative Hoechst Stain (intensity of Hoechst 33342 fluorescence of treated cells compared to the untreated control; number of cells remaining) (U2OS cells [3]): 34% | generalized cellular toxicity (loss of cells / decrease in Hoechst 33342 signal) (U2OS cells [3]): generally cytotoxic | generalized cellular toxicity (loss of cells / decrease in Hoechst 33342 signal) (U2OS cells [3]; listed as rottlerin): significant toxicity

CCCCCc1ccc(/C=C/[C@H](O)[C@@H](CO)NC)cc1 [SK1-I]
emission values at 680 nm (accumulation of sphingolipids within the vacuolar compartment) ([7]; U-2-OS, 0, 2.5, 5, 10 or 20 μM for 18.5 hours): Dose-dependent increases | cell viability (480 nm emission intensity from Hoechst dye) ([7]; U-2-OS, 0-20 μM for 18.5 hours): Cell viability was maintained under all treatment conditions

COc1ccc(CCN(C)CCCC(C#N)(c2ccc(OC)c(OC)c2)C(C)C)cc1OC (stereo not drawn) [verapamil]
punctate pattern of cytoplasmic staining / levels of Dye 1 in the cells [4]: increased in a dose-dependent manner | EC50 (U2OS cells [2]; [9]): 30 µM

CCN(CC)CCCC(C)Nc1ccnc2cc(Cl)ccc12 (stereo not drawn) [chloroquine]
green signal (CF-PE) relative to vehicle-treated controls (U2OS cells [5]): increased green and red signal | red signal (Dye 1) relative to vehicle-treated controls (U2OS cells [5]): increased green and red signal | punctate pattern of cytoplasmic staining / levels of Dye 1 in the cells [4]: increased in a dose-dependent manner | vacuolation / expansion of lysosomal compartment detected by Dye 1 assay (U2OS cells [2]): induced an expansion in the lysosomal compartment | EC50 (U2OS cells [2]; [9]): 15 µM | fluorescence intensity of lysosomal staining with Dye 6 (HeLa cells): increase in fluorescence intensity of lysosomal staining | vacuolation / expansion of lysosomal compartment detected by Lipid-Tox assay (U2OS cells [6]): induced an expansion in the lysosomal compartment

CN(C)CCCn1cc(C2=C(c3c[nH]c4ccccc34)C(=O)NC2=O)c2ccccc21 [GF-109203X]
Relative Lyso Stain (intensity of Dye 1 fluorescence of treated cells compared to the untreated control) (U2OS cells [2]): 197% | Relative Hoechst Stain (intensity of Hoechst 33342 fluorescence of treated cells compared to the untreated control; number of cells remaining) (U2OS cells [3]): 87%

CCCCOc1cc(CC2CNC(=O)N2)ccc1OC (stereo not drawn) [Ro 20-1724]
Relative Hoechst Stain (intensity of Hoechst 33342 fluorescence of treated cells compared to the untreated control; number of cells remaining) (U2OS cells [1]): 53% | Relative Lyso Stain (intensity of Dye 1 fluorescence of treated cells compared to the untreated control) (U2OS cells [2]): 190%

CN(C)CCCN1c2ccccc2Sc2ccc(Cl)cc21 [chlorpromazine]
punctate pattern of cytoplasmic staining / levels of Dye 1 in the cells [4]: increased in a dose-dependent manner | EC50 (U2OS cells [2]; [9]): 6 µM

Cn1cc(C2=C(c3cn(CCCSC(=N)N)c4ccccc34)C(=O)NC2=O)c2ccccc21 [Ro 31-8220]
Relative Lyso Stain (intensity of Dye 1 fluorescence of treated cells compared to the untreated control) (U2OS cells [2]): 146% | hit call in ICCB library screen (Dye 1 accumulation) (U2OS cells [2]): positive hit | Relative Hoechst Stain (intensity of Hoechst 33342 fluorescence of treated cells compared to the untreated control; number of cells remaining) (U2OS cells [3]): 89%

CN(C)CCNc1c(F)c(F)c(NCCN(C)C)c2c1C(=O)c1c(O)ccc(O)c1C2=O [Dye 1, 1,4-bis(2-(dimethylamino)ethylamino)-2,3-difluoro-5,8-dihydroxyanthracene-9,10-dione]
fluorescence emission intensity and wavelength maximum versus pH [8]: not significantly altered
